Reference: patent US10689331B2, “IDO inhibitors” (Bristol-Myers Squibb Company, priority 2015, dated 2020)

The molecules below were run against T1, human IDO1 (Homo sapiens, UniProt P14902) (assay: HEK Human IDO-1 inhibition assay (kynurenine readout, Ehrlich reagent, absorbance 490 nm)). Details: human IDO1/HEK293 cells, incubated 20 hours with compound; 500 nM reference standard = 100% inhibition.
T1 construct: expressed in transfected cells
Format: cell-based
In short: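 HEK293 cells stably expressing human IDO1, treated with compound for 20 h at 37 °C in phenol red-free RPMI/10% FBS. Kynurenine detected after TCA (0.2% final, 50 °C, 30 min) by Ehrlich reagent absorbance at 490 nm; IC50 normalised to 500 nM reference standard (100%) and DMSO (0%).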

T1 sequence (P14902 whole entry): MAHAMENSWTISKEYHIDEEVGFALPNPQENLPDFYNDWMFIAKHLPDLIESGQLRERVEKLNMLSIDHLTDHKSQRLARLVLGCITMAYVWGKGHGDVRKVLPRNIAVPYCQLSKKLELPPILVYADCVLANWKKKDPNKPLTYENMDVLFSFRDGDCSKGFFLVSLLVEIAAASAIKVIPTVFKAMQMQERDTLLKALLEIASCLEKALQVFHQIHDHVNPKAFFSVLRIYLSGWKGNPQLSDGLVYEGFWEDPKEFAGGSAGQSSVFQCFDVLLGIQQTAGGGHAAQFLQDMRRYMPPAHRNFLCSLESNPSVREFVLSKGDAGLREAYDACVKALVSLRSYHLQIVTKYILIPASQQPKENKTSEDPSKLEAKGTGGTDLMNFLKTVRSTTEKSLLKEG

Compound | IC50
CCCN(Cc1ccccc1)c1ccc(OCC(=O)O)cc1NC(=O)Cc1ccc(Cl)cc1F [Example 165, 2-(4-(benzyl(propyl)amino)-3-(2-(4-chloro-2-fluorophenyl)acetamido)phenoxy)acetic acid] | ≥ 100 nM
CCCN(Cc1ccccc1)c1ccc(OCC(=O)O)cc1NC(=O)Cc1ccc(C)cc1 [Example 166, 2-(4-(benzyl(propyl)amino)-3-(2-(p-tolyl)acetamido)phenoxy)acetic acid] | ≥ 100 nM
CC(C)CN(Cc1ccc(Cl)cc1)c1ccc(OCC(=O)O)cc1NC(=O)Cc1ccc(Cl)cc1F [Example 167, 2-(3-(2-(4-chloro-2-fluorophenyl)acetamido)-4-((4-chlorobenzyl)(isobutyl)amino)phenoxy)acetic acid] | ≥ 100 nM
